Patent publication US11958796B2, “Hydrophilic and particularly water soluble DBOV-derivatives” (Max-Planck-Gesellschaft zur Förderung der Wissenschaften …, priority 2018, dated 2024)

Legend:
[1] = solubility in water; type: physicochemical; details: room temperature
Protocol: In accordance with the present invention, the solubility of the compound having the general formula (1) in water at 23° C. is measured as follows: 1.0 mg sample is weighed into an Erlenmeyer flask and is then mixed homogeneously with 4 ml of water with a spatula at 23° C. The remaining substance on the spatula is stripped off with a magnetic stirrer bar, which is then added to the Erlenmeyer flask. While stirring with a magnetic stirrer, water is added dropwise with a burette until the solution in the Erlenmeyer flask becomes clear at 23° C. After that, the solubility of compound in water is calculated by calculating the ratio of weighed compound divided by the volume of added water and then by recalculating this ratio to 1 l of water.

[2] = test system: living cells; assay: uptake into living cells, spinning disk confocal microscopy; type: cell-based
Protocol: (§1) More specifically, the cytotoxicity of DBOV-Mes-OTEG was tested in living cells. […] Moreover, the uptake of DBOV-Mes-OTEG into living cells was investigated by imaging 21 hours with low laser intensity at the spinning disk confocal microscopy (Visitron).

[3] = test system: living cells; assay: cytotoxicity test in living cells; type: cell-based; details: concentration of 1 μM
Protocol: as §1

[4] = test system: fixed cell samples; assay: blinking-mode imaging of fixed samples in PBS; details: fixed samples in PBS without special imaging buffer; continuous exposure, laser intensity 10 kW/cm^2 for 90 min
Description: After the aforementioned live cell imaging, the samples were fixed and imaged in phosphate-buffered saline (PBS) without special imaging buffer.

solubility in water [1]: 0.1 g/L
Substance: 3,4,5-tris(2,5,8,11-tetraoxatridecan-13-yloxy)phenyl substituted 6,14-dimesityldibenzo[hi,st]ovalene [DBOV-Mes-OTEG]
intracellular location ([2]; after 21 hours incubation): in the nucleus and nuclear membrane | uptake / intracellular location ([2]; beginning of the incubation): taken into the cytoplasm | cytotoxicity [3]: does not show any significant toxicity | stability of blinking signals (photostability) [4]: no significant decrease of blinking signals
